{
  "source": "paper PMC8216447",
  "about": "“Factors affecting the buccal delivery of deformable nanovesicles based on insulin–phospholipid complex: an in vivo investigation” (Drug Delivery, 2020)",
  "tested_on": "normal rabbits",
  "test": "In vivo hypoglycemic effect, rabbit esophageal ligation model",
  "details": "insulin solution 3 mg/mL",
  "description": "The relative pharmacological bioactivity of insulin delivered via the transmucosal route by IPC-DNVs in different drug doses, delivery sites, ligation times, drug concentrations, sizes, and deformabilities was evaluated in normal rabbits by assessing the hypoglycemic effects. […] After fasting for 2 h, the rabbits were weighed and anesthetized with pentobarbital (2%, 50 mg/kg) through the ear margin vein. During anesthesia, the animals were restrained in a supine position to a board. The esophagus was surgically ligated to prevent swallowing. The drug solution for buccal administration (oral mucosa) was divided into four parts; two parts for administration via sublingual mucosa, and two parts for administration via left and right buccal mucosa. The sublingual mucosa and the buccal mucosa groups were administered only to the sublingual mucosa or buccal mucosa. After administration of the drug solution for 30 min (except the group with ligation time of 15 min), the esophagus was untied, and the response of the animals was observed. Blood samples were collected from the ear veins at predetermined time intervals (0, 0.5, 1, 1.5, 2, 2.5, 3, 3.5, 4, 4.5, 5, and 6 h) after DNVs administration and blood glucose levels were measured using a Blood Analyzer (ONETOUCH Ultra; Johnson & Johnson, New Brunswick, NJ, USA). […]",
  "data": [
    {"substance": "Recombinant human insulin [insulin solution]", "values": [
      {"measurement": "hypoglycemic effect", "setting": "1 IU/kg, subcutaneous administration", "result": "evident"},
      {"measurement": "glucose levels within 6 h after buccal administration", "setting": "10 IU/kg, buccal administration (control)", "result": "barely changed"}
    ]}
  ]
}
